“And” between values parts separate entries of the source, which are not always exact repeats. Equal values may be shown once. Results filed as inconclusive are left out.
Tested on: BDF1 mice, s.c. Lewis lung carcinoma, T/C %
Assay: NCI In Vivo Anticancer Drug Screen. Data for tumor model Lewis Lung Carcinoma (subcutaneous) in B6D2F1 (BDF1) mice
Method in brief: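 Transplanted tumors grown in mice; compound vs vehicle dosing; endpoint survival or tumor size; ratio T/C.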

COC1=C(N)C(=O)c2nc(-c3nc(C(=O)O)c(C)cc3N)ccc2C1=O
T/C (endpoint: median survival time, dose: 0.02 mg/kg/injection, schedule: Q01DX009 (ip), vehicle: Klucel (hydroxypropylcellulose) (HPC), higher = longer survival): 91 % of control | T/C (endpoint: median survival time, dose: 0.05 mg/kg/injection, schedule: Q01DX009 (ip), vehicle: Klucel (hydroxypropylcellulose) (HPC), higher = longer survival): 106 % of control | T/C (endpoint: median survival time, dose: 0.1 mg/kg/injection, schedule: Q01DX009 (ip), vehicle: Klucel (hydroxypropylcellulose) (HPC), higher = longer survival): 103 % of control

C[C@]12CC[C@H](O)CC1=CC[C@@H]1[C@@H]2CC[C@]2(C)c3nc4ccccc4cc3C[C@@H]12
T/C (endpoint: mean tumor weight, dose: 0.2 mg/kg/injection, schedule: Q01DX011 (sc), vehicle: steriod suspending solution, higher = larger tumour): 104 % of control | T/C (endpoint: mean tumor weight, dose: 0.4 mg/kg/injection, schedule: Q01DX011 (sc), vehicle: steriod suspending solution, higher = larger tumour): 87 % of control | T/C (endpoint: mean tumor weight, dose: 0.8 mg/kg/injection, schedule: Q01DX011 (sc), vehicle: steriod suspending solution, higher = larger tumour): 95 % of control | T/C (endpoint: mean tumor weight, dose: 1.6 mg/kg/injection, schedule: Q01DX011 (sc), vehicle: steriod suspending solution, higher = larger tumour): 117 % of control | T/C (endpoint: mean tumor weight, dose: 3.25 mg/kg/injection, schedule: Q01DX011 (sc), vehicle: steriod suspending solution, higher = larger tumour): 93 % of control | T/C (endpoint: mean tumor weight, dose: 7.5 mg/kg/injection, schedule: Q01DX011 (sc), vehicle: steriod suspending solution, higher = larger tumour): 63 % of control | T/C (endpoint: mean tumor weight, dose: 15.6 mg/kg/injection, schedule: Q01DX011 (sc), vehicle: steriod suspending solution, higher = larger tumour): 70 % of control | T/C (endpoint: mean tumor weight, dose: 31.3 mg/kg/injection, schedule: Q01DX011 (sc), vehicle: steriod suspending solution, higher = larger tumour): 43 % of control | T/C (endpoint: mean tumor weight, dose: 60.0 mg/kg/injection, schedule: Q01DX011 (sc), vehicle: steriod suspending solution, higher = larger tumour): 95 % of control | T/C (endpoint: mean tumor weight, dose: 62.5 mg/kg/injection, schedule: Q01DX011 (sc), vehicle: steriod suspending solution, higher = larger tumour): 91 % of control | T/C (endpoint: mean tumor weight, dose: 90.0 mg/kg/injection, schedule: Q01DX011 (sc), vehicle: steriod suspending solution, higher = larger tumour): 83 % of control | T/C (endpoint: mean tumor weight, dose: 125.0 mg/kg/injection, schedule: Q01DX011 (sc), vehicle: steriod suspending solution, higher = larger tumour): 52 % of control | T/C (endpoint: mean tumor weight, dose: 500.0 mg/kg/injection, schedule: Q01DX011 (sc), vehicle: steriod suspending solution, higher = larger tumour): 77 % of control

C=C1C(=O)OC2C1CCC(C)C1CCC(=O)OC12C (stereo not given)
T/C (endpoint: median survival time, dose: 1.6 mg/kg/injection, schedule: Q01DX009 (ip), vehicle: Klucel (hydroxypropylcellulose) (HPC), higher = longer survival): 95 % of control | T/C (endpoint: median survival time, dose: 3.12 mg/kg/injection, schedule: Q01DX009 (ip), vehicle: Klucel (hydroxypropylcellulose) (HPC), higher = longer survival): 102 % of control | T/C (endpoint: median survival time, dose: 3.13 mg/kg/injection, schedule: Q01DX009 (ip), vehicle: Klucel (hydroxypropylcellulose) (HPC), higher = longer survival): 104 % of control | T/C (endpoint: median survival time, dose: 6.25 mg/kg/injection, schedule: Q01DX009 (ip), vehicle: Klucel (hydroxypropylcellulose) (HPC), higher = longer survival): 102 % of control | T/C (endpoint: median survival time, dose: 12.5 mg/kg/injection, schedule: Q01DX009 (ip), vehicle: Klucel (hydroxypropylcellulose) (HPC), higher = longer survival): 106 % of control | T/C (endpoint: median survival time, dose: 25.0 mg/kg/injection, schedule: Q01DX009 (ip), vehicle: Klucel (hydroxypropylcellulose) (HPC), higher = longer survival): 92 % of control

O=C1C=CC(=O)c2c(Cl)ccc(O)c21
T/C (endpoint: median survival time, dose: 0.63 mg/kg/injection, schedule: Q01DX009 (ip), vehicle: Klucel (hydroxypropylcellulose) (HPC), higher = longer survival): 100 % of control | T/C (endpoint: median survival time, dose: 1.25 mg/kg/injection, schedule: Q01DX009 (ip), vehicle: Klucel (hydroxypropylcellulose) (HPC), higher = longer survival): 104 % of control | T/C (endpoint: median survival time, dose: 2.5 mg/kg/injection, schedule: Q01DX009 (ip), vehicle: Klucel (hydroxypropylcellulose) (HPC), higher = longer survival): 102 % of control | T/C (endpoint: median survival time, dose: 5.0 mg/kg/injection, schedule: Q01DX009 (ip), vehicle: Klucel (hydroxypropylcellulose) (HPC), higher = longer survival): 98 % of control

CC(=O)C(O)N1C(=O)C=CC1=O (stereo not given)
T/C (endpoint: median survival time, dose: 0.31 mg/kg/injection, schedule: Q01DX009 (ip), vehicle: saline, higher = longer survival): 100 % of control | T/C (endpoint: median survival time, dose: 0.62 mg/kg/injection, schedule: Q01DX009 (ip), vehicle: saline, higher = longer survival): 98 % of control and 105 % of control and 119 % of control | T/C (endpoint: median survival time, dose: 1.25 mg/kg/injection, schedule: Q01DX009 (ip), vehicle: saline, higher = longer survival): 107 % of control (2×) and 120 % of control | T/C (endpoint: median survival time, dose: 1.25 mg/kg/injection, schedule: Q02DX009 (ip), vehicle: saline, higher = longer survival): 114 % of control | T/C (endpoint: median survival time, dose: 2.5 mg/kg/injection, schedule: Q01DX009 (ip), vehicle: saline, higher = longer survival): 90 % of control and 107 % of control | T/C (endpoint: median survival time, dose: 2.5 mg/kg/injection, schedule: Q02DX009 (ip), vehicle: saline, higher = longer survival): 104 % of control | T/C (endpoint: median survival time, dose: 5.0 mg/kg/injection, schedule: Q01DX009 (ip), vehicle: saline, higher = longer survival): 97 % of control and 100 % of control and 120 % of control | T/C (endpoint: median survival time, dose: 5.0 mg/kg/injection, schedule: Q02DX009 (ip), vehicle: saline, higher = longer survival): 105 % of control

CC(=O)NC1=C(N2CC2)C(=O)C(NC(C)=O)=C(N2CC2)C1=O
T/C (endpoint: median survival time, dose: 0.12 mg/kg/injection, schedule: Q01DX009 (ip), vehicle: saline with Tween-80, higher = longer survival): 105 % of control and 111 % of control | T/C (endpoint: median survival time, dose: 0.25 mg/kg/injection, schedule: Q01DX005 (ip), vehicle: saline with Tween-80, higher = longer survival): 102 % of control and 119 % of control | T/C (endpoint: median survival time, dose: 0.25 mg/kg/injection, schedule: Q01DX009 (ip), vehicle: saline with Tween-80, higher = longer survival): 102 % of control and 112 % of control | T/C (endpoint: median survival time, dose: 0.5 mg/kg/injection, schedule: Q01DX005 (ip), vehicle: saline with Tween-80, higher = longer survival): 98 % of control and 109 % of control | T/C (endpoint: median survival time, dose: 0.5 mg/kg/injection, schedule: Q01DX009 (ip), vehicle: saline with Tween-80, higher = longer survival): 87 % of control and 105 % of control | T/C (endpoint: median survival time, dose: 1.0 mg/kg/injection, schedule: Q01DX005 (ip), vehicle: saline with Tween-80, higher = longer survival): 115 % of control | T/C (endpoint: median survival time, dose: 1.0 mg/kg/injection, schedule: Q01DX009 (ip), vehicle: saline with Tween-80, higher = longer survival): 123 % of control | T/C (endpoint: median survival time, dose: 2.0 mg/kg/injection, schedule: Q01DX005 (ip), vehicle: saline with Tween-80, higher = longer survival): 94 % of control

O=C(O)Cc1ccc(C2CCCCC2)cc1
T/C (endpoint: mean tumor weight, dose: 150.0 mg/kg/injection, schedule: Q01DX011 (ip), vehicle: carboxymethylcellulose (CMC), higher = larger tumour): 67 % of control | T/C (endpoint: mean tumor weight, dose: 225.0 mg/kg/injection, schedule: Q01DX011 (ip), vehicle: carboxymethylcellulose (CMC), higher = larger tumour): 88 % of control | T/C (endpoint: mean tumor weight, dose: 335.0 mg/kg/injection, schedule: Q01DX011 (ip), vehicle: carboxymethylcellulose (CMC), higher = larger tumour): 100 % of control

O=P(c1ccccc1)(N1CC1)N1CC1
T/C (endpoint: mean tumor weight, dose: 11.0 mg/kg/injection, schedule: Q01DX011 (ip), vehicle: saline, higher = larger tumour): 65 % of control | T/C (endpoint: mean tumor weight, dose: 17.0 mg/kg/injection, schedule: Q01DX011 (ip), vehicle: saline, higher = larger tumour): 93 % of control | T/C (endpoint: mean tumor weight, dose: 25.0 mg/kg/injection, schedule: Q01DX011 (ip), vehicle: saline, higher = larger tumour): 69 % of control | T/C (endpoint: mean tumor weight, dose: 38.0 mg/kg/injection, schedule: Q01DX011 (ip), vehicle: saline, higher = larger tumour): 38 % of control | T/C (endpoint: mean tumor weight, dose: 76.0 mg/kg/injection, schedule: Q01DX011 (ip), vehicle: saline, higher = larger tumour): 52 % of control

— PubChem BioAssay AID270 (DTP/NCI, 2004)
